Key:
[1] = tested on: Jurkat (T-lymphocyte) cells; experiment: Selective toxicity, cell viability by MTT or XTT, uninfected control cells; type: cell-based
Procedure: For purposes of the following experiments and unless otherwise specified, the standard DEAE/Dex concentration is about 6.0 to about 6.9 molar DEAE/0.1 molar Dex.
Selective Toxicity. Wells with 10^6 Jurkat (T-lymphocyte) cells were infected with HIV at Multiplicities of Infection (MOI—the number of viral particles vs. infectable cells) of 0.1 or 0.01 for 4 hours. The cells are treated with Dex, DEAE, DEAE/DEX or control for 48 hours. Cell viability was assayed by MTT or XTT method. In the control (uninfected) cells, standard concentrations of Dex, DEAE and DEAE/Dex are non-toxic (within standard deviation).

HIV = HIV replication in JC53 cells, viral core antigen P24 antibody kit; type: cell-based; details: Dex alone from greater or equal to 0.1 μmolar, effect topped out
Procedure: In another experiment, JC53 cells (HeLa cancer cells engineered to express CD4 and CCR5 receptors for HIV) are treated with HIV and the relevant agents to determine if DEAE inhibit HIV replication, using commercial antibody kit for viral core antigen P24 to assess level of virus production. […] The virus appears able to propagate and infect other cells. Dex alone indicated a 50% HIV activity inhibition from greater or equal to 0.1 μmolar. […] Similarly, 0.02 μmolar AZT alone has 40% inhibition of HIV replication.

## C[C@@H]1C[C@H]2[C@@H]3CCC4=CC(=O)C=C[C@]4(C)[C@@]3(F)[C@@H](O)C[C@]2(C)[C@@]1(O)C(=O)CO [Dex, dexamethasone]
[1]
  toxicity (cell viability): non-toxic
HIV
  HIV activity inhibition: 50%

From patent publication US20100273733A1, “HIV Treatment” (priority 2009, published 2010)
